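Grown in 96-well plates, cells were treated for 48 hours with each compound at five concentrations. Insufficient inhibition: endpoint recorded as highest concentration tested. The concentration for 50% growth inhibition is given as GI50.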 Activity calls are given as the source filed them. Cut-off read from the data, not from the text of the source: active = GI50 up to about 1.1 µM and inactive = higher.
What was measured:
Test in all cases: growth of human tumour cells (NCI), 48 h
A498 = system: A498
CAKI-1 = system: CAKI-1
COLO 205 = system: COLO 205
HCC 2998 = system: HCC 2998
HCT-116 = system: HCT-116
HOP-62 = system: HOP-62
HOP-92 = system: HOP-92
K562 = system: K562
LOX IMVI = system: LOX IMVI
M14 = system: M14
MDA-MB-435 = system: MDA-MB-435
MOLT-4 = system: MOLT-4
Malme-3M = system: Malme-3M
NCI-H226 = system: NCI-H226
OVCAR-5 = system: OVCAR-5
RXF 393 = system: RXF 393
SK-MEL-5 = system: SK-MEL-5
SK-OV-3 = system: SK-OV-3
SN12C = system: SN12C
UO-31 = system: UO-31

Row | Compound | GI50 (A498) | GI50 (CAKI-1) | GI50 (COLO 205) | GI50 (HCC 2998) | GI50 (HCT-116) | GI50 (HOP-62) | GI50 (HOP-92) | GI50 (K562) | GI50 (LOX IMVI) | GI50 (M14) | GI50 (MDA-MB-435) | GI50 (MOLT-4) | GI50 (Malme-3M) | GI50 (NCI-H226) | GI50 (OVCAR-5) | GI50 (RXF 393) | GI50 (SK-MEL-5) | GI50 (SK-OV-3) | GI50 (SN12C) | GI50 (UO-31)
1 | COC(=O)c1ccc2cc(O)ccc2c1 | 38.5 µM (inactive) | > 100 µM (inactive) | > 100 µM (inactive) | > 100 µM (inactive) | 68.7 µM (inactive) | > 100 µM (inactive) | > 100 µM (inactive) | 41.5 µM (inactive) | 55.6 µM (inactive) | 72.1 µM (inactive) | 96.6 µM (inactive) | 25.2 µM (inactive) | > 100 µM (inactive) | 60.1 µM (inactive) | > 100 µM (inactive) | > 100 µM (inactive) | 56.4 µM (inactive) | > 100 µM (inactive) | > 100 µM (inactive) | 32.4 µM (inactive)
2 | COc1cc(C2c3cc4c(cc3OC(N3CCOCC3)C2C)OCO4)cc(OC)c1OC(C)=O (stereo not given) | 27.8 µM (inactive) | 16.6 µM (inactive) | 19.3 µM (inactive) | 11.9 µM (inactive) | 7.52 µM (inactive) | 12.4 µM (inactive) | 23.9 µM (inactive) | 3.81 µM (inactive) | 23.6 µM (inactive) | 9.06 µM (inactive) | 2.46 µM (inactive) | 13 µM (inactive) | 5.9 µM (inactive) | 17.7 µM (inactive) | 49.1 µM (inactive) | 11.6 µM (inactive) | 4.46 µM (inactive) | 11.3 µM (inactive) | 17.7 µM (inactive) | 28.4 µM (inactive)
3 | CC/C(=C\c1ccc(OC)cc1)c1ccc(OC)cc1 | > 100 µM (inactive) | > 100 µM (inactive) | > 100 µM (inactive) | > 100 µM (inactive) | > 100 µM (inactive) | > 100 µM (inactive) | 69.7 µM (inactive) | > 100 µM (inactive) | 70.6 µM (inactive) | 72.6 µM (inactive) | 45.7 µM (inactive) | 52.5 µM (inactive) | 50.7 µM (inactive) | > 100 µM (inactive) | 66.7 µM (inactive) | 60.8 µM (inactive) | 30.1 µM (inactive) | > 100 µM (inactive) | > 100 µM (inactive) | > 100 µM (inactive)
4 | CCCCCCCCCCNC1CC(OC2CC(O)(C(O)CO)Cc3c(O)c4c(c(O)c32)C(=O)c2c(OC)cccc2C4=O)OC(C)C1O (stereo not given) | 1.5 µM (inactive) | 1.68 µM (inactive) | 1.66 µM (inactive) | 1.33 µM (inactive) | 0.692 µM (active) | 1.66 µM (inactive) | 1.47 µM (inactive) | 0.324 µM (active) | 0.641 µM (active) | 1.69 µM (inactive) | 1.77 µM (inactive) | 0.189 µM (active) | 1.94 µM (inactive) | 1.79 µM (inactive) | 1.8 µM (inactive) | 1.26 µM (inactive) | 1.74 µM (inactive) | 1.6 µM (inactive) | 1.65 µM (inactive) | 1.77 µM (inactive)
5 | COC(=O)/C=C1/OC(c2ccc(OC)cc2)=C(Cl)C1=O | 22.5 µM (inactive) | 13.5 µM (inactive) | 9.91 µM (inactive) | 21.3 µM (inactive) | 13.5 µM (inactive) | 20.6 µM (inactive) | 23.1 µM (inactive) | 2.73 µM (inactive) | 7.94 µM (inactive) | 16.9 µM (inactive) | 15.6 µM (inactive) | 2.96 µM (inactive) | 16.2 µM (inactive) | 21.9 µM (inactive) | 17.1 µM (inactive) | 10 µM (inactive) | 14 µM (inactive) | 16.7 µM (inactive) | 18.9 µM (inactive) | 21 µM (inactive)
6 | OCCCNCC(O)c1ccc(OCc2ccccc2)c(OCc2ccccc2)c1 (stereo not given) | 11.9 µM (inactive) | 17.6 µM (inactive) | 4.76 µM (inactive) | 5.3 µM (inactive) | 8.47 µM (inactive) | 14.3 µM (inactive) | 7.59 µM (inactive) | 8.45 µM (inactive) | 6.35 µM (inactive) | 17.1 µM (inactive) | 7.8 µM (inactive) | 8.3 µM (inactive) | 15.8 µM (inactive) | 12.4 µM (inactive) | 15.7 µM (inactive) | 23.4 µM (inactive) | 7.03 µM (inactive) | 9.51 µM (inactive) | 15.3 µM (inactive) | 15 µM (inactive)
7 | CCCNC1=C2C[C@@H](C)C[C@@H](OC)[C@@H](OC(=O)CCCN)[C@H](C)/C=C(\C)[C@@H](OC(N)=O)[C@H](OC)/C=C\C=C(/C)C(=O)NC(=CC1=O)C2=O | 21.8 µM (inactive) | 20.3 µM (inactive) | 3.52 µM (inactive) | 18.8 µM (inactive) | 8.97 µM (inactive) | 15.6 µM (inactive) | 12.7 µM (inactive) | 4.75 µM (inactive) | 16 µM (inactive) | 15.2 µM (inactive) | 13 µM (inactive) | 6.9 µM (inactive) | 12.4 µM (inactive) | 18.5 µM (inactive) | 15.2 µM (inactive) | 11.8 µM (inactive) | 9.29 µM (inactive) | 16.4 µM (inactive) | 22.7 µM (inactive) | 19.2 µM (inactive)
8 | CCCCCCCCCCc1c2nc(c(CCCCCCCCCC)c3ccc([nH]3)c(CCCCCCCCCC)c3nc(c(CCCCCCCCCC)c4ccc1[nH]4)C=C3)C=C2 | > 100 µM (inactive) | > 100 µM (inactive) | > 100 µM (inactive) | > 100 µM (inactive) | > 100 µM (inactive) | > 100 µM (inactive) | > 100 µM (inactive) | > 100 µM (inactive) | > 100 µM (inactive) | > 100 µM (inactive) | > 100 µM (inactive) | > 100 µM (inactive) | > 100 µM (inactive) | > 100 µM (inactive) | > 100 µM (inactive) | > 100 µM (inactive) | > 100 µM (inactive) | > 100 µM (inactive) | > 100 µM (inactive) | > 100 µM (inactive)
9 | CC(C)=CCC/C(C)=C/CC/C(C)=C/CCN(C)CCO | 14.2 µM (inactive) | 6.32 µM (inactive) | 1.72 µM (inactive) | 2.03 µM (inactive) | 4.12 µM (inactive) | 6.78 µM (inactive) | 3.32 µM (inactive) | 1.54 µM (inactive) | 3.15 µM (inactive) | 1.95 µM (inactive) | 4.44 µM (inactive) | 3.44 µM (inactive) | 3.54 µM (inactive) | 14.9 µM (inactive) | 6.46 µM (inactive) | 7.59 µM (inactive) | 1.89 µM (inactive) | 15.1 µM (inactive) | 12.3 µM (inactive) | 12.1 µM (inactive)
10 | CN(C)CC(O)c1ccc(Cl)c2ccccc12 (stereo not given) | 22.4 µM (inactive) | 25.6 µM (inactive) | 20.6 µM (inactive) | 15.8 µM (inactive) | 50 µM (inactive) | 50.8 µM (inactive) | 14.2 µM (inactive) | 1.15 µM (inactive) | 22.3 µM (inactive) | 16.7 µM (inactive) | 21.6 µM (inactive) | 23.2 µM (inactive) | 32.3 µM (inactive) | > 27.3 µM (inactive) | > 100 µM (inactive) | 22.1 µM (inactive) | 16.6 µM (inactive) | 74 µM (inactive) | 43.3 µM (inactive) | 19.9 µM (inactive)
11 | O=c1[nH]nc(Cc2ccccc2)n1/N=C\CC/C=N\n1c(Cc2ccccc2)n[nH]c1=O | > 100 µM (inactive) | > 100 µM (inactive) | > 100 µM (inactive) | 53.8 µM (inactive) | 18.5 µM (inactive) | 22.1 µM (inactive) | 41.8 µM (inactive) | 36.2 µM (inactive) | 15.7 µM (inactive) | 44.9 µM (inactive) | 34.6 µM (inactive) | 31.1 µM (inactive) | 24.7 µM (inactive) | 33.9 µM (inactive) | > 100 µM (inactive) | 24.3 µM (inactive) | 29.2 µM (inactive) | 31.3 µM (inactive) | > 100 µM (inactive) | > 100 µM (inactive)
12 | OCCO[P+]1(OCCO)n2c3ccc2C(c2ccccc2)=C2C=CC(=N2)C(c2ccccc2)=c2ccc(n21)=C(c1ccccc1)C1=NC(=C3c2ccccc2)C=C1 | 0.349 µM (active) | 0.783 µM (active) | 0.013 µM (active) | 0.0195 µM (active) | 0.0218 µM (active) | 0.0708 µM (active) | 0.0382 µM (active) | 0.0109 µM (active) | 0.022 µM (active) | 0.163 µM (active) | 0.0296 µM (active) | 0.0545 µM (active) | 0.0408 µM (active) | 0.0579 µM (active) | 0.102 µM (active) | 0.182 µM (active) | 0.0296 µM (active) | 0.0561 µM (active) | 0.0253 µM (active) | 1.14 µM (inactive)
13 | Cc1cc(-c2nc3cc(F)ccc3s2)ccc1N | 2 µM (inactive) | 23.6 µM (inactive) | 8.69 µM (inactive) | < 0.01 µM (active) | 21.1 µM (inactive) | 15.2 µM (inactive) | 18.7 µM (inactive) | > 49.2 µM (inactive) | > 56.9 µM (inactive) | 39.2 µM (inactive) | > 55.6 µM (inactive) | 34.2 µM (inactive) | 40.8 µM (inactive) | < 0.051 µM (active) | 0.794 µM (active) | 17.2 µM (inactive) | 42.4 µM (inactive) | 88.5 µM (inactive) | 31 µM (inactive) | 4.06 µM (inactive)
14 | CCOC(=O)c1c2c(n3ccccc13)C(=O)c1ccccc1C2=O | 61.4 µM (inactive) | > 100 µM (inactive) | 26.5 µM (inactive) | 2.55 µM (inactive) | > 100 µM (inactive) | 97.9 µM (inactive) | 44.8 µM (inactive) | > 100 µM (inactive) | > 100 µM (inactive) | > 100 µM (inactive) | > 100 µM (inactive) | > 100 µM (inactive) | 7.91 µM (inactive) | > 100 µM (inactive) | > 100 µM (inactive) | 48.1 µM (inactive) | 10.7 µM (inactive) | > 100 µM (inactive) | > 100 µM (inactive) | > 100 µM (inactive)

Source: ChEMBL document CHEMBL1201862, “PubChem BioAssay data set” (2004)
